Assay results as given in paper PMC6547740, “Potent and specific MTH1 inhibitors targeting gastric cancer” (Cell Death & Disease, 2019).

Experiments:
HGC-27 cells = test: Western blot of DNA damage response markers, HGC-27; assay type: cell-based, human; conditions: HGC-27, 1-12 µM 48 h or 12 µM 12-48 h, dose and time-dependently, vs DMSO
Protocol: MGC-803, HGC-27 and GES-1 cells were seeded into 100mm^2 plastic dishes(1 × 10^5 cells/well) and incubated overnight prior to the addition of compound MI-743 at 1, 2, 4, 8 and 12 µM for 48 h or compound MI-743 at 12 µM for 12, 24, 36 and 48 h, respectively. After treatment, the cells were harvested and lysed with RIPA cell lysis buffer, containing protease inhibitor cocktail. Then, the cells were centrifuged at 12,000 × g for 20 min at 4 °C. The supernatant were collected and the concentration was determined by a Bicinchoninic Acid (BCA) Protein Assay kit, denatured at 100 °C for 10 min, separated by SDS−PAGE and transferred to 0.22 μm nitrocellulose membranes. After blocking by PBS containing 5% skim milk for 2 h at room temperature, the membranes were probed with the appropriate primary antibodies (1:500~1:1000) at 4 °C overnight, followed by the treatment of horseradish-peroxidase-conjugated secondary antibody (1:10000) at room temperature for 2 h. Subsequently, the membranes were washed with PBST, examined by enhanced chemiluminescence and the data was determined using Image J software.

[1] = test system: MGC-803 cells-derived xenograft; test: MGC-803 cells-derived xenograft model; assay type: in vivo, BALB/c nude mice; design: average tumor volumes in comparison with oil treatment group: scale not given here; conditions: 40 mg/kg, gavage once a day for 25 days
Protocol: All animal experiments were conducted according to the guidelines of the Institutional Animal Care and Use Committee of Zhengzhou University. Four or five-week-old female BALB/c nude mice, weighing 18–21 g were purchased from Hunan Slack Scene of Laboratory Animal Company, LTD (Hunan, China). They received abundant food and water and were housed in a laminar flow under sterilized condition. 200 µL MGC-803 cells at the concentration of 5 × 10^7/mL were injected into the right scapular region of the mice. When most of the tumor volumes reached 100 mm^3, mice were randomly divided into oil (solvent) group and MI-743(40 mg/kg) treatment group. Then, they received gavage daily for 25 days. The body weight was weighed every 2 days and the tumor volumes were measured every 4 days. At the 25th day, the tumors were surgically removed and weighed. The tumor size was determined by vernier caliper measurements and the tumor and major organs were fixed in 4% buffered paraformaldehyde and paraffin-embedded for hematoxylin and eosin (HE) staining, immunohistochemistry (IHC) and TUNEL assay.

HepG2 cells = test: MTT cell viability, HepG2; assay type: cell-based; conditions: Homo sapiens, liver cancer cell line, 72 h
Protocol: The cell viability was determined by 3-(4,5-dimethylthiazol-2-yl)-2,5-diphenyltetrazolium bromide (MTT) assay, according to the manufacturer’s instructions. 1 day before treatment, cells were seeded into 96-well plates at a concentration of 2–5 × 10^3 cells per well, followed by treatment with fresh medium containing serial dilutions of candidate compounds for 48 or 72 h, 20 μL of MTT solution (5 mg/mL in PBS) was then added to each well. After treatment, the plates were incubated at 37 °C for another 4 h. Subsequently, the MTT solution was removed and 150 μL of DMSO was added to each well for 10 min, and then the plates were shaken to dissolve the dark blue crystal (formazan), the absorbance was detected at 570 nm using a BioTek microplate reader. The data were analyzed using SPSS 20 software.

MTH2 = molecular target: T1, MTH2 (Homo sapiens, UniProt Q9NV35); test: Cellular thermal shift assay (CETSA), MTH2; assay type: binding; conditions: MGC-803 cells, 50 µM compound, heated 10 min from 43 to 61 °C
T1 construct: endogenous in cells; host or cells: MGC-803 (human gastric cancer cell line)
Protocol: (§1) Cellular thermal shift assay (CETSA), also known as the target engagement assay was one-way to detect the intracellular interaction ability of compounds with its specific target. Firstly, cells were seeded into T75 culture flasks and cultured overnight. Then, the cells were treated with cell media containing 1‰ DMSO as blank control and candidate compounds for 3–5 h. Next, the cells were collected by centrifugation and resuspended by PBS, then the cells were aliquoted into 7 PCR tubes and heated using PCR instrument for 10 min from 43 to 61 °C. After that, cells were lysed using liquid nitrogen and three repeated cycles of freeze-thawing. Then, samples were centrifuged at 12,000 × g for 20 min at 4 °C. Supernatants were denatured at 100 °C for 10 min and kept at −20 °C until Western Blot analysis.

MGC-803 cells = test: Alkaline comet assay, MGC-803; assay type: cell-based, human; conditions: MGC-803, 10 µM, 48 h, compared with DMSO
Protocol: MGC-803 and HGC-27 cells were seeded into 6-well plates(1.5 × 10^5 cells/well) and cultured overnight. For siRNA experiments, the control siRNA and MTH1 siRNA were transfected into cells. For compounds experiments, cells were treated with candidate compounds MI-743 for 48 h before collection. For the H2O2 control, cells were treated with 100 µM H2O2 for 10 min. Subsequently, cells were harvested, washed and resuspended with PBS. After counting, cells were mixed with 1.2% low melting-temperature agarose at 37 °C. The mixtures were layered onto pre-warmed glass slides, which were pre-coated with 1% agarose. After adding coverslips, slides were kept in 4 °C immediately for 10-15 min, followed by immersing in pre-chilled lysis buffer(2.5 M NaCl, 0.1 M EDTA, 10 mM Tris-HCL pH 7.7, 1% Triton X-100, 1% DMSO)for 5-8 h. Then, slides were washed three times with enzyme reaction buffer (40 mM HEPES pH 8.0, 0.1 M KCl, 0.5 mM EDTA and 0.2 mg/mL BSA) and incubated for another 45 min in pre-chilled alkaline electrophoresis buffer (50 mM NaOH, 1 mM EDTA, 1% DMSO, pH12.8). After electrophoresis for 30 min at 25 V, slides were neutralized with 0.4 M Tris-HCl pH 7.0 for 1 h and stained with 1‰ EB for 5 min. At last, images were acquired using fluorescence microscope and analysised by CometScore software.

OGG1 = molecular target: T2, OGG1 (Homo sapiens, UniProt O15527); test: Cellular thermal shift assay (CETSA), OGG1; assay type: binding; conditions: MGC-803 cells, 50 µM compound, heated 10 min from 43 to 61 °C
T2 construct: endogenous in cells; host or cells: MGC-803 (human gastric cancer cell line)
Protocol: as §1

T1 sequence (Q9NV35 whole entry): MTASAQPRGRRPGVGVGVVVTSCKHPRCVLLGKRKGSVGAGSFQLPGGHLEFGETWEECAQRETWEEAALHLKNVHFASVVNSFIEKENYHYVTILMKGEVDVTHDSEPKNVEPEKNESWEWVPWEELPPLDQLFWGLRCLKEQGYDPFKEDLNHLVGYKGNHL
T2 sequence (O15527 whole entry): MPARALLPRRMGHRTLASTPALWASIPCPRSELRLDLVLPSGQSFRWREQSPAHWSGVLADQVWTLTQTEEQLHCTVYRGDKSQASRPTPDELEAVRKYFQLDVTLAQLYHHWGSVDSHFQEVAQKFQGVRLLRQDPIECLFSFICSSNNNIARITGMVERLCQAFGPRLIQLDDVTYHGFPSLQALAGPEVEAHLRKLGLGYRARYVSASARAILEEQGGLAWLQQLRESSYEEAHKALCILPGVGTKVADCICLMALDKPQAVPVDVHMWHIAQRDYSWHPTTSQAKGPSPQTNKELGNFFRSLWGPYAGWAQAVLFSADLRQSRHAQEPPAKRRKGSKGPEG

## C#CCSc1nc(NNC(N)=S)c(C#N)c(-c2ccc3oc(=O)ccc3c2)n1 [MI-743, 2-(5-cyano-6-(2-oxo-2H-chromen-6-yl)-2-(prop-2-yn-1-ylthio)pyrimidin-4-yl)hydrazine-1-carbothioamide]
HGC-27 cells
  expression levels of p53pS15, ATMpS1981 and p21: significantly increased
[1]
  average tumor volumes in comparison with oil treatment group: 33.54%
[1]; vs oil group
  expression levels of ATMpS1981 and 8-oxo-dG in tumor tissue (immunohistochemistry): sharply increased
HepG2 cells
  IC50: 6.73 ± 0.83 µM
MTH2
  temperature at which MTH2 became unstable: 49 °C
MGC-803 cells
  comet tail moment: significantly elevated
OGG1
  temperature at which OGG1 became unstable: 49 °C
